Measured values as given in ChEMBL document CHEMBL1201862, “PubChem BioAssay data set” (2004).
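48-hour exposure; five concentrations; linearly interpolated endpoints. GI50 = concentration required for 50% inhibition of growth.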 Activity calls are given as the source filed them. Rule as the data show it: active = GI50 up to about 1.1 µM and inactive = higher. Where a SMILES comes first, the peptide text is derived from it. The star is where a group is joined. Cbz = O=C(OCc1ccccc1)*; OBn = c1ccc(CO*)cc1

How the values were obtained:
Test in all cases: growth of human tumour cells (NCI), 48 h
DU-145 = system: DU-145
NCI-H226 = system: NCI-H226
OVCAR-3 = system: OVCAR-3
ACHN = system: ACHN
TK-10 = system: TK-10
HOP-62 = system: HOP-62
SNB-19 = system: SNB-19
MDA-MB-435 = system: MDA-MB-435
MDA-N = system: MDA-N
SW-620 = system: SW-620
NCI-H23 = system: NCI-H23
OVCAR-8 = system: OVCAR-8
HCC 2998 = system: HCC 2998
SF-295 = system: SF-295
SNB-75 = system: SNB-75
HOP-92 = system: HOP-92
786-0 = system: 786-0
UACC-62 = system: UACC-62
MDA-MB-231 = system: MDA-MB-231
SK-MEL-2 = system: SK-MEL-2
Hs-578T = system: Hs-578T
BT-549 = system: BT-549
HCT-15 = system: HCT-15
COLO 205 = system: COLO 205
K562 = system: K562
SK-MEL-5 = system: SK-MEL-5
HCT-116 = system: HCT-116
NCI-H522 = system: NCI-H522
EKVX = system: EKVX
SN12C = system: SN12C
CCRF-CEM = system: CCRF-CEM
LOX IMVI = system: LOX IMVI
IGROV-1 = system: IGROV-1
RXF 393 = system: RXF 393
OVCAR-4 = system: OVCAR-4
NCI-H460 = system: NCI-H460
SR = system: SR
HL-60 = system: HL-60
HT-29 = system: HT-29
NCI/ADR-RES = system: NCI/ADR-RES
SK-MEL-28 = system: SK-MEL-28
CAKI-1 = system: CAKI-1
M14 = system: M14
MCF7 = system: MCF7
UO-31 = system: UO-31
PC-3 = system: PC-3
OVCAR-5 = system: OVCAR-5
SF-539 = system: SF-539
Malme-3M = system: Malme-3M
A498 = system: A498
UACC-257 = system: UACC-257
SF-268 = system: SF-268
SK-OV-3 = system: SK-OV-3
U-251 = system: U-251
A549 = system: A549
MOLT-4 = system: MOLT-4
KM12 = system: KM12
T47D = system: T47D
RPMI-8226 = system: RPMI-8226

CCO/C=N\c1c(C#N)c(-c2ccc(Cl)cc2)cn1-c1ccc(C)cc1
GI50 (DU-145): > 100 µM (inactive)
GI50 (NCI-H226): > 100 µM (inactive)
GI50 (OVCAR-3): > 100 µM (inactive)
GI50 (ACHN): > 100 µM (inactive)
GI50 (TK-10): > 100 µM (inactive)
GI50 (HOP-62): > 100 µM (inactive)
GI50 (SNB-19): > 100 µM (inactive)
GI50 (MDA-MB-435): > 100 µM (inactive)
GI50 (MDA-N): > 100 µM (inactive)
GI50 (SW-620): > 100 µM (inactive)
GI50 (NCI-H23): > 100 µM (inactive)
GI50 (OVCAR-8): > 100 µM (inactive)
GI50 (HCC 2998): > 100 µM (inactive)
GI50 (SF-295): > 100 µM (inactive)
GI50 (SNB-75): > 100 µM (inactive)
GI50 (HOP-92): > 100 µM (inactive)
GI50 (786-0): > 100 µM (inactive)
GI50 (UACC-62): > 100 µM (inactive)
GI50 (MDA-MB-231): > 100 µM (inactive)
GI50 (SK-MEL-2): > 100 µM (inactive)
GI50 (Hs-578T): 95.9 µM (inactive)
GI50 (BT-549): > 100 µM (inactive)
GI50 (HCT-15): > 100 µM
GI50 (COLO 205): > 100 µM (inactive)
GI50 (K562): > 100 µM (inactive)
GI50 (SK-MEL-5): > 100 µM (inactive)
GI50 (HCT-116): > 100 µM (inactive)
GI50 (NCI-H522): > 100 µM (inactive)
GI50 (EKVX): > 100 µM (inactive)
GI50 (SN12C): > 100 µM (inactive)
GI50 (CCRF-CEM): > 100 µM (inactive)
GI50 (LOX IMVI): > 100 µM (inactive)
GI50 (IGROV-1): > 100 µM (inactive)
GI50 (RXF 393): > 100 µM (inactive)
GI50 (OVCAR-4): > 100 µM (inactive)
GI50 (NCI-H460): > 100 µM (inactive)
GI50 (SR): 0.0272 µM (active)
GI50 (HL-60): > 100 µM (inactive)
GI50 (HT-29): > 100 µM (inactive)
GI50 (NCI/ADR-RES): > 100 µM (inactive)
GI50 (SK-MEL-28): > 100 µM (inactive)
GI50 (CAKI-1): > 100 µM (inactive)
GI50 (M14): > 100 µM (inactive)
GI50 (MCF7): > 100 µM (inactive)
GI50 (UO-31): > 100 µM (inactive)
GI50 (PC-3): > 100 µM (inactive)
GI50 (OVCAR-5): > 100 µM (inactive)
GI50 (SF-539): > 100 µM (inactive)
GI50 (Malme-3M): > 100 µM (inactive)
GI50 (A498): > 100 µM (inactive)
GI50 (UACC-257): > 100 µM (inactive)
GI50 (SF-268): > 100 µM (inactive)
GI50 (SK-OV-3): > 100 µM (inactive)
GI50 (U-251): > 100 µM (inactive)
GI50 (A549): > 100 µM (inactive)

Cn1c(N=P(c2ccccc2)(c2ccccc2)c2ccccc2)c([N+](=O)[O-])c(=O)n(C)c1=O
GI50 (NCI-H226): > 100 µM (inactive)
GI50 (OVCAR-3): 30.5 µM (inactive)
GI50 (ACHN): 55.7 µM (inactive)
GI50 (TK-10): 67.9 µM (inactive)
GI50 (HOP-62): 48 µM (inactive)
GI50 (SNB-19): > 100 µM (inactive)
GI50 (MDA-MB-435): 35.2 µM (inactive)
GI50 (MDA-N): 34.1 µM (inactive)
GI50 (SW-620): 41.4 µM (inactive)
GI50 (NCI-H23): 99.1 µM (inactive)
GI50 (OVCAR-8): 0.991 µM (active)
GI50 (HCC 2998): 71.8 µM (inactive)
GI50 (SF-295): 53 µM (inactive)
GI50 (SNB-75): 25.5 µM (inactive)
GI50 (HOP-92): > 100 µM (inactive)
GI50 (786-0): 39 µM (inactive)
GI50 (UACC-62): 59.2 µM (inactive)
GI50 (MDA-MB-231): 32.2 µM (inactive)
GI50 (SK-MEL-2): 17.4 µM (inactive)
GI50 (Hs-578T): 25.2 µM (inactive)
GI50 (BT-549): 38.5 µM (inactive)
GI50 (HCT-15): 51.9 µM
GI50 (COLO 205): 44.5 µM (inactive)
GI50 (K562): 16.2 µM (inactive)
GI50 (SK-MEL-5): 47.4 µM (inactive)
GI50 (HCT-116): 36.6 µM (inactive)
GI50 (NCI-H522): 41.9 µM (inactive)
GI50 (EKVX): 56.2 µM (inactive)
GI50 (SN12C): 56.2 µM (inactive)
GI50 (CCRF-CEM): 20.2 µM (inactive)
GI50 (MOLT-4): 21.2 µM (inactive)
GI50 (LOX IMVI): 35.9 µM (inactive)
GI50 (IGROV-1): 48 µM (inactive)
GI50 (RXF 393): > 100 µM (inactive)
GI50 (OVCAR-4): 41.1 µM (inactive)
GI50 (NCI-H460): 43.4 µM (inactive)
GI50 (KM12): 25.6 µM (inactive)
GI50 (HT-29): 44.5 µM (inactive)
GI50 (NCI/ADR-RES): 89.9 µM (inactive)
GI50 (CAKI-1): > 100 µM (inactive)
GI50 (M14): 31.6 µM (inactive)
GI50 (MCF7): 42.3 µM (inactive)
GI50 (UO-31): 71 µM (inactive)
GI50 (T47D): 33.7 µM (inactive)
GI50 (PC-3): 24.7 µM (inactive)
GI50 (OVCAR-5): > 100 µM (inactive)
GI50 (SF-539): > 100 µM (inactive)
GI50 (Malme-3M): > 100 µM (inactive)
GI50 (RPMI-8226): 34 µM (inactive)
GI50 (A498): 59.7 µM (inactive)
GI50 (UACC-257): 73.1 µM (inactive)
GI50 (SF-268): 78.7 µM (inactive)
GI50 (SK-OV-3): > 100 µM (inactive)
GI50 (U-251): 66.2 µM (inactive)
GI50 (A549): 40.6 µM (inactive)

COC(=O)C(Cc1ccc(O)cc1)NC(=O)C(CC(=O)OCc1ccccc1)NC(=O)OCc1ccccc1 (stereo unspecified) (Cbz-Asp(OBn)-Tyr-OMe; configuration not given here)
GI50 (NCI-H226): 21.4 µM (inactive)
GI50 (ACHN): 20.1 µM (inactive)
GI50 (TK-10): 18.2 µM (inactive)
GI50 (HOP-62): 19.7 µM (inactive)
GI50 (SNB-19): 18.3 µM (inactive)
GI50 (MDA-N): 19.4 µM (inactive)
GI50 (SW-620): 22.4 µM (inactive)
GI50 (NCI-H23): 23.6 µM (inactive)
GI50 (OVCAR-8): 20.5 µM (inactive)
GI50 (HCC 2998): 17.6 µM (inactive)
GI50 (SNB-75): 17.9 µM (inactive)
GI50 (HOP-92): 51.1 µM (inactive)
GI50 (786-0): 18.2 µM (inactive)
GI50 (MDA-MB-231): 18.7 µM (inactive)
GI50 (SK-MEL-2): 19.2 µM (inactive)
GI50 (Hs-578T): 24.9 µM (inactive)
GI50 (BT-549): 22.6 µM (inactive)
GI50 (HCT-15): 18.3 µM
GI50 (COLO 205): 19.1 µM (inactive)
GI50 (K562): 42.5 µM (inactive)
GI50 (SK-MEL-5): 18.2 µM (inactive)
GI50 (HCT-116): 19.3 µM (inactive)
GI50 (EKVX): 23.8 µM (inactive)
GI50 (SN12C): 21 µM (inactive)
GI50 (CCRF-CEM): 53.2 µM (inactive)
GI50 (MOLT-4): 24.7 µM (inactive)
GI50 (IGROV-1): 17.3 µM (inactive)
GI50 (RXF 393): 14 µM (inactive)
GI50 (NCI-H460): 12.4 µM (inactive)
GI50 (SR): 22.8 µM (inactive)
GI50 (KM12): 22.6 µM (inactive)
GI50 (HL-60): 25.6 µM (inactive)
GI50 (HT-29): 17.1 µM (inactive)
GI50 (SK-MEL-28): 17.1 µM (inactive)
GI50 (M14): 22.2 µM (inactive)
GI50 (MCF7): > 10 µM (inactive)
GI50 (UO-31): 22.9 µM (inactive)
GI50 (T47D): 19.5 µM (inactive)
GI50 (PC-3): 17.7 µM (inactive)
GI50 (OVCAR-5): 22.7 µM (inactive)
GI50 (Malme-3M): 41.1 µM (inactive)
GI50 (RPMI-8226): 24.9 µM (inactive)
GI50 (A498): 20.6 µM (inactive)
GI50 (UACC-257): 21.2 µM (inactive)
GI50 (U-251): 20.3 µM (inactive)
GI50 (A549): 20.7 µM (inactive)
